Assay results: paper PMC11091889, “Silver Organometallics that are Highly Potent Thioredoxin and Glutathione Reductase Inhibitors: Exploring the Correlations of Solution Chemistry with the Strong Antibacterial Effects” (ACS Infectious Diseases, 2024)
Read-outs that look alike come from different tables or passages of the source.

Key:
[1] = Conductometry: molar conductivity of silver complexes in DMSO; type: physicochemical; conditions: 1.0 mM in DMSO, calculated as monocarbene (NHC)AgX
Description: Since both the neutral monocarbene and the ionic biscarbene form of the complexes may exist in various proportions in the solution, conductometry studies were performed to reveal the dominant structure. The molar conductivity of 1.0 mM solutions of each complex in DMSO was determined after different periods up to 24 h using AgNO3 as 1:1 electrolyte reference (see Table 1). According to the literature, the expected range of molar conductivity for 1:1 electrolytes in DMSO is 35–90 S cm^2 mol^–1.[45],[46]
Conductivity measurements were performed using an Apera Instruments EC9500 conductivity meter. Solutions (as indicated, otherwise 1.0 mM) of all compounds were prepared using freshly distilled DMSO with a specific electrical conductivity of ≤3 × 10^–8 S cm^–1. The conductivities were measured at 25 ± 2 °C immediately after complete dissolution and after 24 h.

[2] = tested on: K. pneumoniae (DSM 11678, ATCC33495); assay: Broth microdilution antibacterial assay; type: cell-based, Klebsiella pneumoniae; conditions: for MIC K. pneumoniae / EC50: mean ± standard error; for MIC K. pneumoniae / EC50 / MIC K. pneumoniae (value in brackets): n = 3, MHB; for MIC K. pneumoniae / MIC K. pneumoniae (value in brackets) / MIC: 22 h; for EC50: read-out: EC50 K. pneumoniae; for MIC: Klebsiella pneumoniae
Description: (§1) The antibacterial effect of the silver NHC complexes and selected ligands was evaluated in two Gram-positive [Enterococcus faecium, methicillin resistant S. aureus, (MRSA)] and in four Gram-negative (Acinetobacter baumannii, Escherichia coli, Klebsiella pneumoniae, and Pseudomonas aeruginosa) pathogenic bacterial strains using broth microdilution assays. The resulting minimal inhibitory concentrations (MICs, Table 2) and EC50 (Table S6) were determined by a curve fitting procedure. Silver nitrate (AgNO3), SSD, and various antibiotics were used as references.
(§2) The following strains of ESKAPE panel were utilized and maintained at 37 °C in MHB (21 g/L Müller Hinton broth, pH 7.4) or TSY (30 g/L trypticase soy broth, 3 g/L yeast extract, pH 7.0–7.2) media: A. baumannii (DSM 30007, ATCC 19606), E. coli (DSM1116, ATCC 9637), K. pneumoniae (DSM 11678, ATCC33495), P. aeruginosa PA7 (DSM 24068) in MHB; E. faecium (DSM 20477, ATCC 19434), and S. aureus MRSA (DSM 11822, ICB 25701) in TSY. MIC values were determined following a standardized protocol in broth microdilution assays. The compounds and reference substances (AgNO3 and SSD) were serially diluted from 64 to 1 μg/mL. Starting inocula of 2–8 × 10^5 CFU/mL in MHB or TSY media at 37 °C were used, and serial dilutions were carried out in 96-well microtiter plates in duplicate. After incubation of the plates for 22 h at 37 °C, the absorbance at 600 nm was measured using The Spark multimode microplate reader (Tecan Trading AG). The MIC values for the tested compounds were determined in three independent experiments and presented in μM with standard errors and also in μg/mL. Amikacin (P. aeruginosa), linezolid (S. aureus), and ciprofloxacin (all other strains) served as positive controls. The MIC and EC50 values were determined by curve fitting with Sigma Plot. To determine the effect of the culture medium on the activity of silver compounds, the assay was performed using MHB, TSY, or DMEM (Gibco). To observe the effect of individual components of TSY medium, antibacterial tests were performed using MHB with addition of tryptone (17 g/L) or yeast extract (3 g/L, both were purchased from Sigma).

[3] = tested on: A. baumannii (DSM 30007, ATCC 19606); assay: Broth microdilution antibacterial assay; type: cell-based, Acinetobacter baumannii; conditions: for MIC A. baumannii / EC50: mean ± standard error; for MIC A. baumannii / EC50 / MIC A. baumannii (value in brackets): n = 3, MHB; for MIC A. baumannii / MIC A. baumannii (value in brackets) / MIC: 22 h; for EC50: read-out: EC50 A. baumannii; for MIC: Acinetobacter baumannii
Description: as §1, §2

[4] = tested on: E. coli (DSM1116, ATCC 9637); assay: microbe, parasite or virus in culture; type: cell-based, Escherichia coli; conditions: for EC50 / MIC E. coli: mean ± standard error; for EC50 / MIC E. coli / MIC E. coli (value in brackets): n = 3, MHB; for MIC: Escherichia coli
Description: as §1, §2

[5] = tested on: S. aureus MRSA (DSM 11822, ICB 25701); assay: microbe, parasite or virus in culture; type: cell-based, methicillin resistant S. aureus; conditions: n = 3, TSY; for MIC MRSA / EC50: mean ± standard error; for MIC MRSA / MIC MRSA (value in brackets): 22 h; for EC50: read-out: EC50 MRSA
Description: as §1
The importance of the culture medium used in antibacterial assays has been pointed out for antibiotics and in particular for silver.[53]−[55] In our recent studies, tryptic soy yeast (TSY) broth has been used for growing Gram-positive bacteria. Two components thereof, tryptone and yeast extract, have been reported to affect the antibacterial activity of silver nitrate.[55] Moreover, such an effect was also observed for other media containing at least one of those components.[11],[53] […] Silver nitrate served as a reference, and three different growth media were studied, namely, Müller-Hinton Broth (MHB, commonly used for Gram-negative bacteria), TSY broth (commonly used for Gram-positive bacteria), and DMEM supplemented with 10% FCS (commonly used for growth of mammalian and human cells).
as §2

[6] = tested on: E. faecium (DSM 20477, ATCC 19434); assay: Broth microdilution antibacterial assay; type: cell-based, Enterococcus faecium; conditions: for MIC E. faecium / EC50: mean ± standard error; for MIC E. faecium / EC50 / MIC E. faecium (value in brackets): n = 3, TSY; for MIC E. faecium / MIC E. faecium (value in brackets) / MIC: 22 h; for EC50: read-out: EC50 E. faecium; for MIC: Enterococcus faecium
Description: as §1, §2

[7] = tested on: P. aeruginosa PA7 (DSM 24068); assay: microbe, parasite or virus in culture; type: cell-based, Pseudomonas aeruginosa; conditions: n = 3, MHB; for MIC P. aeruginosa / EC50: mean ± standard error; for MIC P. aeruginosa / MIC P. aeruginosa (value in brackets): 22 h; for EC50: read-out: EC50 P. aeruginosa
Description: as §1, §2

SMILES	Molar conductivity ΛM ([1]; 1 h after dissolution) [S cm^2 mol^–^1]	Molar conductivity ΛM ([1]; 24 h after dissolution) [S cm^2 mol^–^1]	MIC K. pneumoniae [2] [µM]	EC50 [2] [µM]	MIC K. pneumoniae (value in brackets) [2] [µg/mL]	MIC A. baumannii [3] [µM]	EC50 [3] [nM]	MIC A. baumannii (value in brackets) [3] [µg/mL]	EC50 [4] [µM]	MIC E. coli ([4]; 22 h) [µM]	MIC E. coli (value in brackets) ([4]; 22 h) [µg/mL]	MIC MRSA [5] [µM]	EC50 [5] [µM]	MIC MRSA (value in brackets) [5] [µg/mL]	MIC E. faecium [6] [µM]	EC50 [6] [µM]	MIC E. faecium (value in brackets) [6] [µg/mL]	MIC P. aeruginosa [7] [µM]	EC50 [7] [µM]	MIC P. aeruginosa (value in brackets) [7] [µg/mL]	other results
CCn1[c](=[Ag][Br])n(Cc2ccccn2)c2ccccc21 [2b, Bromido (1-Ethyl-3-(pyridin-2-ylmethyl)-benzimidazol-2-ylidene) Silver(I)]	5.47	5.07	15.7 ± 3.1	9 ± 1	7	12.5 ± 3.1	2200 ± 300	5	35.6 ± 9.4	50.2 ± 12.5	21	151 ± 0.0	88.5 ± 1.6	64	151 ± 0.0	128 ± 0.9	64	9.4 ± 0.0	6.9 ± 0.5	4	–
Cn1[c](=[Ag][Br])n(Cc2ccccn2)c2ccccc21 [1b, Bromido (1-Methyl-3-(pyridin-2-ylmethyl)-benzimidazol-2-ylidene) Silver(I)]	4.75	4.82	16.2 ± 3.2	10 ± 2.2	7	16.2 ± 3.2	2600 ± 300	7	71.3 ± 6.7	103 ± 25	43	156 ± 0.0	134 ± 14	64	156 ± 0.0	129 ± 2.8	64	25.9 ± 6.5	10.9 ± 3.9	11	–
O=C(O)c1cn(C2CC2)c2cc(N3CCNCC3)c(F)cc2c1=O [ciprofloxacin, reference compound]	–	–	–	–	–	–	–	–	–	–	–	–	–	–	–	–	–	–	–	–	MIC ([2]; read-out: MIC K. pneumoniae): 2.5 ± 0.9 µM; MIC ([2]; read-out: MIC K. pneumoniae (value in brackets)): 0.8 µg/mL; MIC ([3]; read-out: MIC A. baumannii): 0.63 ± 0.22 µM; MIC ([3]; read-out: MIC A. baumannii (value in brackets)): 0.2 µg/mL; MIC ([4]; 22 h, read-out: MIC E. coli): 0.5 µM; MIC ([4]; 22 h, read-out: MIC E. coli (value in brackets)): 0.16 µg/mL; MIC ([4]; read-out: MIC E. coli DSM 1116 in MHB): 0.47 µM; MIC ([4]; read-out: MIC E. coli DSM 1116 in MHB + tryptone): 0.47 µM; MIC ([4]; read-out: MIC E. coli DSM 1116 in MHB + yeast extract): 0.47 µM; MIC ([6]; read-out: MIC E. faecium (value in brackets), n = 3, TSY, 22 h): 5 µg/mL; MIC ([6]; read-out: MIC E. faecium, mean ± standard error, n = 3, TSY, 22 h): 15.1 ± 1 µM
